Laboratory results reported in ChEMBL document CHEMBL5532764, “Identification of SARS-CoV-2 Mpro inhibitors through deep reinforcement learning for de novo drug design and computational chemistry approaches” (RSC Med Chem, 2024).

target: Replicase polyprotein 1ab (Severe acute respiratory syndrome coronavirus 2, UniProt P0DTD1)

`O=C(c1cccnc1)N1CCN(Cc2cc(Cl)cc(Cl)c2OC(F)F)CC1` and `O=C(c1cccnc1)N1CCN(Cc2cccc(Cl)c2Cl)CC1` are within 1.5-fold of each other in IC50: 63 µM for the first, 63.5 µM for the second.

target: Procathepsin L (Homo sapiens, UniProt P07711); assay: Inhibition of human liver Cathepsin L using Z-Phe-Arg7-amido-4-methylcoumarin hydrochloride as substrate by FRET assay
Sequence (P07711 whole entry): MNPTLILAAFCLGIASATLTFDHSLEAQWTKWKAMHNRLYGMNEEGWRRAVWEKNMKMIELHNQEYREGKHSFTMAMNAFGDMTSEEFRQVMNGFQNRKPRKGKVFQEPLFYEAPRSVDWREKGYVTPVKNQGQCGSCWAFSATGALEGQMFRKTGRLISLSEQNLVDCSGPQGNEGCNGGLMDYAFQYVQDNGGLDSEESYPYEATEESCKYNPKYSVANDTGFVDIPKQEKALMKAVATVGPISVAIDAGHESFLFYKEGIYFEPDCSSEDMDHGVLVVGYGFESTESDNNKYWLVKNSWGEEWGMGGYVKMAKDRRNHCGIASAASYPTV

`Cc1cncc(CC(=O)N2CCC[C@H]2c2cccc(Cl)c2)c1` and `Cc1cncc(CC(=O)N2CCc3cc(Cl)c(Cl)cc3C2)c1` cannot be ordered by IC50: greater than 125 µM for the first, greater than 125 µM for the second.

`O=C(c1cncc(Cl)c1)N1CCCN(Cc2ccccc2Cl)CC1` and `N#Cc1ccccc1CN1CCCN(C(=O)c2cncc(Cl)c2)CC1` cannot be ordered by IC50: greater than 125 µM for the first, greater than 125 µM for the second.

`O=C1N[C@@H](Cc2cc(Cl)ccc2F)C(=O)N1c1cncc(F)c1` and `O=C(c1cncc2ccc(F)cc12)N1CCN(Cc2ccc(Cl)cc2Cl)CC1` cannot be ordered by IC50: greater than 125 µM for the first, greater than 125 µM for the second.

`O=C(Cc1cccnc1)N1CCc2c(Cl)cc(Cl)cc2C1` and `O=C(c1cccnc1)N1CCN(Cc2cc(Cl)cc(Cl)c2OC(F)F)CC1` cannot be ordered by IC50: greater than 125 µM for the first, greater than 125 µM for the second.

`O=C1N(Cc2ccc(Cl)cc2Cl)CCN1c1cncc2ccccc12` and `O=C1N(Cc2ccccc2Cl)CCN1c1cncc2ccc(Cl)cc12` cannot be ordered by IC50: greater than 125 µM for the first, greater than 125 µM for the second.

Going from `O=C(Nn1cnc2c(F)cc(F)cc21)C1COc2cc(Cl)c(Cl)cc21` (racemic) to `O=C(c1cccnc1)N1CCN(Cc2cccc(Cl)c2Cl)CC1`, the IC50 rises from 103 µM to greater than 125 µM. The first is the more potent here.
